# Experimental data as given in BindingDB's records for doi:10.1021/jm025558r (Friedrich-Alexander University, 2002).
# Legend:
# [1] = molecular target: 5-hydroxytryptamine receptor 1A (Sus scrofa); test: Displacement of [3H]- 8-OH-DPAT from porcine 5-hydroxytryptamine 1A receptor
# [2] = molecular target: D(1) dopamine receptor (Sus scrofa); test: Binding affinity for porcine Dopamine receptor D1 by [3H]-SCH- 23390 displacement.
smiles,measurement,setting,value
"O=C(NCCCCN1CCN(c2cccc(Cl)c2Cl)CC1)c1cc2ccccc2[te]1 [Benzo[b]tellurophene-2-carboxylic acid {4-[4-(2,3-dichloro-phenyl)-piperazin-1-yl]-butyl}-amide]",Ki,[1],125 nM
same,Ki,[2],1400 nM
